Laboratory results as given in patent publication US20240239779A1, “HERBICIDAL COMPOUNDS” (SYNGENTA CROP PROTECTION AG, priority 2021, published 2024).

Columns and labels:
Type in all cases: in vivo
Settings in all cases: 250 g/ha, evaluated after 13 days, 100=total damage to plant, 0=no damage to plant
[1] = system: LOLPE; experiment: Post-emergence biological efficacy
Method: (§1) Seeds of weeds and/or crops were sown in standard soil in pots. After cultivation for 14 days under controlled conditions in a glasshouse (at 24/19° C., day/night; 16 hours light), the plants were sprayed with an aqueous spray solution derived from the formulation of the technical active ingredient in a small amount of acetone and a special solvent and emulsifier mixture referred to as IF50 (11.12% Emulsogen EL360 TM+44.44% N-methylpyrrolidone+44.44% Dowanol DPM glycol ether), to create a 50 g/l solution which was then diluted using 0.2% Genapol XO80 as diluent to give the desired final dose of test compound.
(§2) The test plants were then grown under controlled conditions in the glasshouse (at 24/18° C., day/night; 15 hours light; 50% humidity)and watered twice daily. After 13 days the test was evaluated (100=total damage to plant; 0=no damage to plant).

[2] = system: ECHCG; experiment: Post-emergence biological efficacy
Method: as §1, §2

[3] = system: IPOHE; experiment: Post-emergence biological efficacy
Method: as §1, §2

[4] = system: CHEAL; experiment: Post-emergence biological efficacy
Method: as §1, §2

[5] = system: ELEIN; experiment: Post-emergence biological efficacy
Method: as §1, §2

[6] = system: EPHHL; experiment: Post-emergence biological efficacy
Method: as §1, §2

[7] = system: DIGSA; experiment: Post-emergence biological efficacy
Method: as §1, §2

[8] = system: AMAPA; experiment: Post-emergence biological efficacy
Method: as §1, §2

[9] = system: SETFA; experiment: Post-emergence biological efficacy
Method: as §1, §2

[10] = system: LOLPE; experiment: Pre-emergence biological efficacy
Method: as §1, with “one day” for “14 days”
(§3) The test plants were then grown under controlled conditions in the glasshouse (at 24/18° C., day/night; 15 hours light; 50% humidity) and watered twice daily. After 13 days the test was evaluated (100=total damage to plant; 0=no damage to plant).

[11] = system: ECHCG; experiment: Pre-emergence biological efficacy
Method: as §1, with “one day” for “14 days”
as §3

[12] = system: IPOHE; experiment: Pre-emergence biological efficacy
Method: as §1, with “one day” for “14 days”
as §3

[13] = system: EPHHL; experiment: Pre-emergence biological efficacy
Method: as §1, with “one day” for “14 days”
as §3

[14] = system: AMAPA; experiment: Pre-emergence biological efficacy
Method: as §1, with “one day” for “14 days”
as §3

[15] = system: SETFA; experiment: Pre-emergence biological efficacy
Method: as §1, with “one day” for “14 days”
as §3

CCOC(=O)C1(C)CC(c2nc(-n3c(=O)cc(C(F)(F)F)n(C)c3=O)c(F)cc2Cl)=NO1 (stereo not drawn) [Compound 14, ethyl 3-[3-chloro-5-fluoro-6-[3-methyl-2,6-dioxo-4-(trifluoromethyl)pyrimidin-1-yl]-2-pyridyl]-5-methyl-4H-isoxazole-5-carboxylate]
100: damage to plant, LOLPE [1] | damage to plant, ECHCG [2] | damage to plant, IPOHE [3] | damage to plant, CHEAL [4] | damage to plant, ELEIN [5] | damage to plant, EPHHL [6] | damage to plant, DIGSA [7] | damage to plant, AMAPA [8] | damage to plant, SETFA [9] | damage to plant, ECHCG [11] | damage to plant, IPOHE [12] | damage to plant, EPHHL [13] | damage to plant, AMAPA [14] | damage to plant, SETFA [15]
90: damage to plant, LOLPE [10]
